The source of these data is ChEMBL document CHEMBL1157463, “Interaction of methimazole with I2: X-ray crystal structure of the charge transfer complex methimazole-I2. implications for the mechanism of action of methimazole-based antithyroid drugs” (J Med Chem, 2008).

A short description of this test: Antioxidant activity assessed as inhibition of lactoperoxidase-catalyzed oxidation of 2,2'-azinobis([…]). The test is classed as functional.

Molecules are shown by their SMILES.

As a reminder, the IC50 is the midpoint of a concentration-inhibition curve.

On to `Cn1cc[nH][c+]1SS[c+]1[nH]ccn1C.[O-][Cl+3]([O-])([O-])[O-].[O-][Cl+3]([O-])([O-])[O-]`, for which the concentration for half-maximal inhibition (IC50) was 1.4 µM.

Regarding `Cn1ccnc1S` [METHIMAZOLE], the IC50 worked out at 5.6 µM.
